Test results reported in patent US9233171B2, “Method of treatment of tumors that are resistant to EGFR antibody therapies by EGFR antibody cytotoxic agent conjugate” (ImmunoGen, Inc., priority 2011, dated 2016).
Where two headings read alike, the source gives them in different places.

Legend:
H2228 cells [1] = details: H2228, Koivunen et al. 2008; cited from earlier work
H2228 cells [2] = experiment: cytotoxic activity, H2228; type: cell-based; details: Homo sapiens, NCI-H2228
Procedure: (§1) The cytotoxic assay was performed as follows.
EML4-ALK gene translocation leads to a constitutive activation of ALK kinase and has been identified as a driver mutation in ˜5% of NSCLC adenocarcinoma (reviewed in Castro-Carpeno J. et al., Clin Transl Oncol. 13:774-779 (2011)). […] Unfortunately, ˜40% of EML4-ALK+ tumors are resistant to crizotinib. Additionally, tumors that are sensitive to crizotinib can rapidly develop resistance to the drug (Castro-Carpeno J. et al., Clin Transl Oncol. 13:774-779 (2011)).

HCC827-ER cell line [3] = experiment: in vitro cytotoxicity assay, HCC827-ER
[4] = test system: HCC827 parental cell line; experiment: Western blot after 16 hour erlotinib treatment, HCC827 parental; type: cell-based; details: erlotinib 16 hours
[5] = test system: Parental HCC827 (Aichi) cells; experiment: in vitro cytotoxicity assay, parental HCC827 (Aichi); type: cell-based
Procedure: as §1
(§2) The HCC827 ER cell line contains high MET gene copy number and the HCC827 EPR cell line carries T790M EGFR mutation (Suda K. et al. Clin Cancer Res 16: 5489 (2010)). These cell lines reflect the two major mechanisms of resistance against EGFR tyrosine kinase inhibitors (Sequist L. et al. Sci Transl Med 3: 75ra26 (2011)).

HCC827-ER-E4 cell line [6] = experiment: in vitro cytotoxicity assay, HCC827-ER-E4
HCC827-ER-E4 cell line [7] = experiment: Western blot after 16 hour erlotinib treatment, HCC827-ER-E4; type: cell-based; details: HCC827-ER-E4, erlotinib 16 hours
H226 cell line [8] = details: H226, Yauch et al. 2005; cited from earlier work
HCC827-ER-E4 cell line [9] = test system: HCC827-ER-E4 cell line
NCI-H1975 cell line = experiment: in vitro cytotoxic assay (WST-8), NCI-H1975; type: cell-based
Procedure: NCI-H1975 cell line is a NSCLC adenocarcinoma cell line that carries both sensitizing (L858R) and resistant (T790M) EGFR mutations (Cosmic database, Wellcome Trust Sanger Institute), thus it closely mimics the EGFR kinase inhibitor resistant tumors found in the clinical setting.
as §1

[10] = target: EGFR on parental HCC827 (Aichi) NSCLC cells (exon 19 deletion EGFR mutation) (UniProt P00533 25-1210); experiment: cell-based or functional assay
HCC827-ER cell line [11] = test system: HCC827-ER cell line
Detroit 562 = experiment: in vitro cytotoxicity assay, Detroit 562; type: cell-based; details: Detroit562
HCC827 cell line = experiment: in vitro cytotoxic assay, HCC827 in absence or presence of HGF
HCC827 EPR (Aichi) cells = experiment: in vitro cytotoxicity assay, HCC827 EPR (Aichi); type: cell-based
Procedure: as §1, §2

H226 cell line [12] = experiment: in vitro cytotoxic assay, H226; type: cell-based
Procedure: as §1
NSCLC cell lines with mesenchymal histology are generally more resistant to gefitinib than those with epithelial histology (Yauch R L. et al. Clin Cancer Res 11: 8686 (2005)). […] H226 cell line is a squamous cell carcinoma with mesenchymal histology.

HCC827 ER (Aichi) cells = experiment: in vitro cytotoxicity assay, HCC827 ER (Aichi); type: cell-based
Procedure: as §1, §2

With `COc1cc(N2CCC(N3CCN(C)CC3)CC2)ccc1Nc1ncc(Cl)c(Nc2ccccc2S(=O)(=O)C(C)C)n1` [TAE684] as the molecule, how does the “resistance of cell line” value (H2228 cells [1]) read?
The value was “resistant”.

With `C[C@@H](Oc1cc(-c2cnn(C3CCNCC3)c2)cnc1N)c1c(Cl)ccc(F)c1Cl` [crizotinib] as the molecule, how does the EC50 (H2228 cells [2]; H2228, EML4-ALK translocation, read-out: EC50) read?
Its EC50 is 3.82 µM.

With `C#Cc1cccc(Nc2ncnc3cc(OCCOC)c(OCCOC)cc23)c1` [erlotinib] as the molecule, how does the EC50 (H2228 cells [2]) read?
Its EC50 is 26.1 µM.

And the “cytotoxic effect” value (HCC827-ER cell line [3])?
Its value is “highly resistant”.

And the AKT level [4]?
Its AKT level is “reduced”.

And the AKT phosphorylation [4]?
The AKT phosphorylation was “inhibited”.

And the EGFR phosphorylation [4]?
Its EGFR phosphorylation is “completely inhibited”.

And the ERK1/2 phosphorylation [4]?
The ERK1/2 phosphorylation was “inhibited”.

And the “sensitivity” value [5]?
The value was “highly sensitive”.

And the “cytotoxic effect” value (HCC827-ER-E4 cell line [6])?
The value was “maintained erlotinib resistance”.

And the AKT level (HCC827-ER-E4 cell line [7])?
Its AKT level is “not changed”.

What about the EGFR phosphorylation (HCC827-ER-E4 cell line [7]) of the same molecule?
Its EGFR phosphorylation is “completely inhibited”.

And the ERK1/2 phosphorylation (HCC827-ER-E4 cell line [7])?
The ERK1/2 phosphorylation was “less impact”.

And the “phospho AKT (pAKT) level” value (HCC827-ER-E4 cell line [7])?
Its value is “little change”.

With `COc1cc2ncnc(Nc3ccc(F)c(Cl)c3)c2cc1OCCCN1CCOCC1` [gefitinib] as the molecule, how does the “resistance of cell line” value (H226 cell line [8]) read?
Its value is “resistant”.

B1: huEGFR-7R antibody (antibody, V domains shown)
VH: QVQLVQSGAEVAKPGASVKLSCKASGYTFTSYWMQWVKQRPGQGLECIGTIYPGDGDTTYTQKFQGKATLTADKSSSTAYMQLSSLRSEDSAVYYCARYDAPGYAMDYWGQGTLVTVSS
VL: DIQMTQSPSSLSASVGDRVTITCRASQDINNYLAWYQHKPGKGPKLLIHYTSTLHPGIPSRFSGSGSGRDYSFSISSLEPEDIATYYCLQYDNLLYTFGQGTKLEIKR
With B1 as the molecule, how does the “cytotoxic effect” value (HCC827-ER-E4 cell line [9]) read?
The value was “little effect”.

What about the “cytotoxic effect” value (NCI-H1975 cell line) of the same molecule?
Its value is “did not have any effect”.

What about the “EC50, in vitro cytotoxicity (WST-8 cell viability) on parental HCC827 (Aichi) cells” value [10] of the same molecule?
The value was 0.000426 µM.

What about the “cytotoxic effect” value (HCC827-ER cell line [11]) of the same molecule?
Its value is “little effect”.

And the “effect on tumor cell growth” value (Detroit 562)?
Its value is “had no effect”.

And the “sensitivity” value [5]?
Its value is “highly sensitive”.

And the “cell growth inhibition” value (HCC827 cell line; HCC827 + 50 ng/mL HGF)?
The value was “further reduced”.

What about the “cell growth inhibition” value (HCC827 cell line; HCC827, absence of HGF) of the same molecule?
The value was “marginal activities”.

And the “sensitivity / resistance” value (HCC827 EPR (Aichi) cells)?
The value was “highly resistant”.

And the “effect on tumor cell growth” value (H226 cell line [12])?
The value was “neither the huEGFR-7R antibody nor cetuximab had effect”.

And the “sensitivity / resistance” value (HCC827 ER (Aichi) cells)?
The value was “highly resistant”.
